Results on 11 molecules are retold here after ChEMBL document CHEMBL1201862, “PubChem BioAssay data set” (2004).

In general, GI50 refers to the concentration giving 50% growth inhibition.

Test systems include HCC 2998; HT-29; K562; LOX IMVI; MDA-MB-435; NCI-H460; OVCAR-3; OVCAR-4; SF-268; SF-295; SN12C; T47D; TK-10; U-251; UACC-62; UO-31; SK-MEL-28; SK-MEL-2; A498; NCI-H522.
What all share (test): DTP human tumour cell line panel, 48 h

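Compound exposure: 48 hours, 5 concentrations, 96-well plates. Abbreviation: GI50, concentration required for 50% inhibition of growth.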 Activity calls are given as the source filed them. Cut-off read from the data, not from the text of the source: active = GI50 up to about 1.1 µM and inactive = higher.

As to `O=S(=O)(c1ccccc1)c1ccc(-c2nc(-c3ccc4c(c3)Sc3ccccc3S4)cs2)cc1`, the GI50 was 35.5 µM (inactive) in the assay with HCC 2998; > 100 µM (inactive) in the assay with HT-29; 69 µM (inactive) with K562; > 100 µM (inactive) in the assay with LOX IMVI; > 100 µM (inactive) with MDA-MB-435; > 100 µM (inactive) in the assay on NCI-H460. Further, the GI50 was > 100 µM (inactive) in the assay with OVCAR-3; > 100 µM (inactive) in the assay with OVCAR-4; 26.7 µM (inactive) in the assay with SF-268; 16.5 µM (inactive) in the assay with SF-295; > 100 µM (inactive) in the assay on SN12C; 61.8 µM (inactive) in the assay on T47D. Also, the GI50 with TK-10 is 22.1 µM (inactive); in the assay on U-251 it was 27.9 µM (inactive); in the assay on UACC-62, 25.6 µM (inactive); with UO-31 it was > 100 µM (inactive).
As for `COc1ccc2oc(=O)c(-c3csc(C)n3)cc2c1`, the GI50 in the assay on HCC 2998, in the assay on HT-29, with K562, in the assay with LOX IMVI, in the assay on MDA-MB-435 and in the assay with NCI-H460 was > 100 µM (inactive) throughout. The GI50 in the assay with OVCAR-4 was 85.3 µM (inactive); in the assay with SF-268 it was 21.6 µM (inactive); in the assay with SF-295 it was 18.6 µM (inactive); in the assay with SK-MEL-28, > 100 µM (inactive); with SK-MEL-2, 41.4 µM (inactive); in the assay on SN12C, > 100 µM (inactive). Moreover, the GI50 in the assay on TK-10 was 26 µM (inactive); in the assay with U-251, 23 µM (inactive); with UACC-62, 22.9 µM (inactive); in the assay on UO-31, 69.2 µM (inactive).
Regarding `CCC(C)C(NC(=O)c1c2ccccc2nc2ccccc12)C(=O)O` (stereo not drawn), the GI50 in the assay with A498 is > 100 µM (inactive); in the assay with HCC 2998 it was > 100 µM (inactive); with HT-29, 75.9 µM (inactive); with K562, > 100 µM (inactive); in the assay on LOX IMVI, 74 µM (inactive); with MDA-MB-435, 79.1 µM (inactive). For the same molecule, the GI50 in the assay with NCI-H460, with NCI-H522, with OVCAR-3, in the assay on OVCAR-4, in the assay on SF-268 and in the assay with SF-295 was > 100 µM (inactive) throughout. The GI50 in the assay with SK-MEL-28, with SK-MEL-2, in the assay on SN12C, with TK-10, in the assay on U-251 and with UACC-62 was > 100 µM (inactive) each time. The GI50 with UO-31 is 25.1 µM (inactive).
As to `Cc1ccc(CS(=O)(=O)C/N=C2\Sc3ccccc3N\C2=C/C(=O)c2ccc(Cl)cc2)cc1`, the GI50 in the assay on HCC 2998, with HT-29, in the assay with K562, with LOX IMVI, in the assay with MDA-MB-435 and with NCI-H522 was > 10 µM (inactive) throughout. Also, the GI50 is > 10 µM (inactive) with OVCAR-3; 5.47 µM (inactive) with OVCAR-4; 7.1 µM (inactive) in the assay with SF-268; > 10 µM (inactive) in the assay with SF-295; > 10 µM (inactive) in the assay on SK-MEL-28; > 10 µM (inactive) with SN12C. Besides, the GI50 is 1.71 µM (inactive) in the assay with T47D, > 10 µM (inactive) with TK-10, > 10 µM (inactive) in the assay with U-251 and > 10 µM (inactive) with UACC-62.
As to `CC(NC(=O)C(C)C(=O)Nc1ccc(C(F)(F)F)cc1)C(N)=O` (stereo not drawn), the GI50 in the assay on HT-29, with K562, in the assay on MDA-MB-435, in the assay with NCI-H460, with NCI-H522 and in the assay with SF-268 was > 100 µM (inactive) throughout. Further, the GI50 in the assay with SF-295, with SK-MEL-2, with SN12C, in the assay on T47D, with U-251 and in the assay on UACC-62 was > 100 µM (inactive) in each case. In the assay with UO-31, the GI50 is > 100 µM (inactive).
With `CCCN(CCC)C(=S)Sc1nc(C)nc(N2CCN(c3nc(C)nc(SC(=S)N(CCC)CCC)c3[N+](=O)[O-])CC2)c1[N+](=O)[O-]`, the GI50 is 16.5 µM (inactive) with HCC 2998; 2.07 µM (inactive) with HT-29; 1.11 µM (active) in the assay on K562; 0.421 µM (active) in the assay on LOX IMVI; 4.82 µM (inactive) with MDA-MB-435; 23.9 µM (inactive) in the assay with NCI-H460. Further, the GI50 is 0.316 µM (active) with NCI-H522; 17.3 µM (inactive) in the assay with OVCAR-4; 18.8 µM (inactive) in the assay with SF-268; 24.9 µM (inactive) with SF-295; 15.3 µM (inactive) in the assay with SK-MEL-28; 7.16 µM (inactive) in the assay with SK-MEL-2. Moreover, the GI50 in the assay on SN12C was 8.77 µM (inactive); with T47D it was 8.2 µM (inactive); in the assay on TK-10, 20.1 µM (inactive); in the assay with U-251 it was 6.5 µM (inactive); in the assay with UACC-62, 7.94 µM (inactive); in the assay on UO-31, 17.9 µM (inactive).
As to `Nc1ncnc2c1ncn2C1CCC(CP(=O)(O)O)C1` (stereo not drawn), the GI50 in the assay on HCC 2998, in the assay on HT-29, in the assay with LOX IMVI, in the assay on MDA-MB-435, in the assay on NCI-H460 and in the assay with OVCAR-3 was > 100 µM (inactive) each time. For the same molecule, the GI50 in the assay on OVCAR-4, in the assay on SF-268, with SF-295, in the assay on SK-MEL-28, with SK-MEL-2 and in the assay on SN12C was > 100 µM (inactive) throughout. Besides, the GI50 with T47D, with TK-10, with U-251, with UACC-62 and in the assay with UO-31 was > 100 µM (inactive) throughout.
Turning to `CN(c1c(Cl)cccc1Cl)S(=O)(=O)c1ccccc1[N+](=O)[O-]`, the GI50 in the assay with HCC 2998, in the assay on HT-29, in the assay with LOX IMVI, in the assay on MDA-MB-435, in the assay on NCI-H460 and in the assay with NCI-H522 was > 100 µM (inactive) in each case. In addition, the GI50 in the assay on OVCAR-3, with OVCAR-4, with SF-268, in the assay on SF-295, with SK-MEL-28 and with SK-MEL-2 was > 100 µM (inactive) throughout. Further, the GI50 with SN12C, in the assay on T47D, in the assay with TK-10, in the assay with U-251, with UACC-62 and in the assay with UO-31 was > 100 µM (inactive) each time.
For `CCOC(=O)COc1c(OC)cc(C2C3=C(COC3=O)Oc3cc4c(cc32)OCO4)cc1OC` (stereo not drawn), the GI50 in the assay on HCC 2998 was 14.5 µM (inactive); in the assay with HT-29, 0.927 µM (active); with K562, 0.155 µM (active); in the assay on LOX IMVI it was 0.625 µM (active); in the assay with MDA-MB-435, 0.0635 µM (active); in the assay with NCI-H460, 7.94 µM (inactive). For the same molecule, the GI50 is 0.479 µM (active) in the assay with NCI-H522; 0.528 µM (active) in the assay on OVCAR-3; 2.46 µM (inactive) with OVCAR-4; 13.5 µM (inactive) with SF-268; 0.9 µM (active) with SF-295; 0.614 µM (active) in the assay with SK-MEL-28. Besides, the GI50 is 8.75 µM (inactive) with SK-MEL-2; 1.72 µM (inactive) in the assay with SN12C; 2.54 µM (inactive) in the assay on T47D; 6.18 µM (inactive) with TK-10; 0.499 µM (active) in the assay on U-251; 1.69 µM (inactive) in the assay on UACC-62. Moreover, in the assay with UO-31, the GI50 was 13.4 µM (inactive).
As to `Cc1ccc2c(=O)c3cccc(CC(=O)O)c3[nH]c2c1C`, the GI50 was > 100 µM (inactive) with A498; > 10 µM (inactive) in the assay with HCC 2998; > 100 µM (inactive) in the assay with HT-29; > 100 µM (inactive) with K562; > 100 µM (inactive) in the assay on LOX IMVI; 65.6 µM (inactive) with MDA-MB-435. Moreover, the GI50 in the assay on NCI-H460 was > 100 µM (inactive); in the assay with NCI-H522 it was > 100 µM (inactive); in the assay on OVCAR-3 it was 57.8 µM (inactive); in the assay with OVCAR-4, > 100 µM (inactive); with SF-268 it was 17.5 µM (inactive); in the assay on SF-295, > 100 µM (inactive). The GI50 was > 100 µM (inactive) in the assay with SK-MEL-28; > 100 µM (inactive) in the assay on SN12C; > 100 µM (inactive) with TK-10; 27.9 µM (inactive) with U-251; > 100 µM (inactive) in the assay on UACC-62; > 100 µM (inactive) in the assay on UO-31.
With `Cc1cc(N(CCC#N)CCC#N)ccc1C(/N=N/c1ccc([N+](=O)[O-])cc1)=N\NC(=O)c1cc(Cl)ccc1C(=O)c1ccccc1`, the GI50 is 13 µM (inactive) with HCC 2998; 10.4 µM (inactive) in the assay on HT-29; 9.84 µM (inactive) in the assay on K562; 22.6 µM (inactive) in the assay on MDA-MB-435; 6.1 µM (inactive) in the assay with NCI-H460; 1.87 µM (inactive) in the assay with NCI-H522. Moreover, the GI50 in the assay on OVCAR-3 is 4.86 µM (inactive); in the assay on OVCAR-4 it was 9.2 µM (inactive); with SF-268, 6.07 µM (inactive); in the assay on SF-295, 14.5 µM (inactive); in the assay with SK-MEL-28, 20.2 µM (inactive); in the assay on SK-MEL-2, 11.1 µM (inactive). Further, the GI50 in the assay on SN12C is 19.3 µM (inactive); in the assay on T47D, 5.18 µM (inactive); with TK-10 it was 16.9 µM (inactive); with U-251, 13.3 µM (inactive); with UACC-62, 11.1 µM (inactive); in the assay with UO-31, 10.1 µM (inactive).
